Values of other authors, collected in US6800616B2, “Treatment of HIV infections” (SuperGen, Inc., priority 1998, dated 2004).

Legend:
T cells, CD4+ subset = conditions: patients given DCF, FLU or 2CDA
[1] = test system: resting normal human lymphocytes
[2] = biological target: T1, adenosine deaminase (ADA) (Homo sapiens, UniProt P00813)
T1 sequence (P00813 1-363): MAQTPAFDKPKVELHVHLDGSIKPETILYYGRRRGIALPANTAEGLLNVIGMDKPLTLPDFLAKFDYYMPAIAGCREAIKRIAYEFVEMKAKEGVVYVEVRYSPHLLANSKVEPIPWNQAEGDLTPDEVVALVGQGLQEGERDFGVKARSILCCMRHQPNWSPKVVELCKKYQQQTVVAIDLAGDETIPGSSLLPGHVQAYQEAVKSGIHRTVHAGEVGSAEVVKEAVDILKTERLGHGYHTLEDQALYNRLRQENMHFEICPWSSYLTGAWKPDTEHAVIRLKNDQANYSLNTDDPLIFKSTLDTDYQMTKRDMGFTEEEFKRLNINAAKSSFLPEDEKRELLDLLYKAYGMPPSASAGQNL

For Nc1nc(Cl)nc2c1ncn2[C@H]1C[C@H](O)[C@@H](CO)O1 [2CDA, 2-chloro-2′-deoxyadenosine], the “frequency of opportunistic infections” value (T cells, CD4+ subset) is listed as “increased frequency of opportunistic infections”, the lymphopenia upon administration (T cells, CD4+ subset) is listed as “prolonged lymphopenia predominating in T cells, especially in the CD4+ subset” and the “toxicity to resting lymphocytes” value [1] is listed as “selectively harm resting normal human lymphocytes”. The “resistance to ADA” value [2] was “rather resistant to the enzyme”.
In the case of OC[C@H]1O[C@@H](n2cnc3c2NC=NC[C@H]3O)C[C@@H]1O [DCF, 2′-deoxycoformycin], the “frequency of opportunistic infections” value (T cells, CD4+ subset) is listed as “increased frequency of opportunistic infections” and the lymphopenia upon administration (T cells, CD4+ subset) is listed as “prolonged lymphopenia predominating in T cells, especially in the CD4+ subset”.
For Nc1nc(F)nc2c1ncn2[C@@H]1O[C@H](COP(=O)(O)O)[C@@H](O)[C@@H]1O [FLU, fludarabine monophosphate], the “frequency of opportunistic infections” value (T cells, CD4+ subset) is given as “increased frequency of opportunistic infections”, the lymphopenia upon administration (T cells, CD4+ subset) is given as “prolonged lymphopenia predominating in T cells, especially in the CD4+ subset” and the “resistance to ADA” value [2] is given as “rather resistant to the enzyme”.
